Starred links: 1 amine or outer side, 2 acyl side, 3 side chain; linkers in the order of their positions; H or OH if unused. Positions of bridges follow the written chain, without caps; N, C: chain ends. Non-standard residues stand in square brackets, D forms with d. Residues, ends and D or L forms follow the SMILES beside them. cPrCO(1-aminomethyl) = O=C(C1(CN[*:1])CC1)[*:2]; PEG8 = NCCOCCOCCOCCOCCOCCOCCOCCOCCC(=O)O; Dip = N[C@H](C(=O)O)C(c1ccccc1)c1ccccc1; Ala(2-furyl) = N[C@@H](Cc1ccco1)C(=O)O; dAla(2-furyl) = N[C@H](Cc1ccco1)C(=O)O; dPhe(4-F) = N[C@H](Cc1ccc(F)cc1)C(=O)O; Arg(Me) = CNC(=N)NCCC[C@H](N)C(=O)O; Hyp = O=C(O)[C@@H]1C[C@@H](O)CN1; 2Thi = N[C@@H](Cc1cccs1)C(=O)O; NMeL = CN[C@@H](CC(C)C)C(=O)O; S5 = C=CCCC[C@](C)(N)C(=O)O; Aze = O=C(O)[C@@H]1CCN1; azaGly = NNC(=O)O; βAla = NCCC(=O)O

T1 sequence (Q969F8 whole entry): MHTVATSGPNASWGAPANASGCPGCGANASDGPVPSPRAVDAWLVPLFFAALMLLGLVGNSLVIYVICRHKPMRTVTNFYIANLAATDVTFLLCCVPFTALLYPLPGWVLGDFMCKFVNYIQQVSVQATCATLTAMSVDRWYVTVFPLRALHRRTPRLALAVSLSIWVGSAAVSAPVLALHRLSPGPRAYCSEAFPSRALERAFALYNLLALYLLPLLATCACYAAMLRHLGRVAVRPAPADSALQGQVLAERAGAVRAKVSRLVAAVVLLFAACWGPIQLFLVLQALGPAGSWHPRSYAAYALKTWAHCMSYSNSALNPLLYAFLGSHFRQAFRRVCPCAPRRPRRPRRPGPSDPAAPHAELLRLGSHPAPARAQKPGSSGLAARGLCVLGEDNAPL

This assay addresses T1, human kiss1 receptor (GPR54) (Homo sapiens, UniProt Q969F8).
T1 construct: host or cells: NFAT-bla CHO-K1 cells (Chinese hamster ovary), purchased recombinant cell line
Description: Kiss1 receptor (GPR54) binding activity of agonists, FRET detection in NFAT-bla CHO-K1 cells. It is filed as cell-based. The conditions noted are these: GPR54; measured according to the method of effect Embodiment 1; preliminary data; read-out: Preliminary measurement data (GPR54) EC50.
In the case of `CNC(=N)NCCC[C@H](NC(=O)[C@H](CC(C)C)NC(=O)NNC(=O)[C@H](Cc1ccccc1)NC(=O)[C@@H](NC(=O)[C@H](CC(N)=O)NC(=O)[C@@H]1C[C@@H](O)CN1C(=O)[C@@H](NC(C)=O)C(c1ccccc1)c1ccccc1)[C@@H](C)O)C(=O)N[C@@H](Cc1c[nH]c2ccccc12)C(N)=O` [YA-132, Ac-Ala(dip)-Hyp-Asn-Thr-Phe-azaGly-Leu-Arg(Me)-Trp-NH2] (Ac-[Dip][Hyp]NTF[azaGly]L[Arg(Me)]W-NH2), the EC50 worked out at 0.19 nM.
For `CNC(=N)NCCC[C@H](NC(=O)[C@H](CC(C)C)NC(=O)NNC(=O)[C@H](Cc1ccccc1)NC(=O)[C@H](Cc1ccco1)NC(=O)[C@H](CC(N)=O)NC(=O)[C@@H]1C[C@@H](O)CN1C(=O)[C@@H](Cc1ccc(O)cc1)NC(C)=O)C(=O)N[C@@H](Cc1c[nH]c2ccccc12)C(N)=O` [YA-143, Ac-D-Tyr-Hyp-Asn-2Fua-Phe-azaGly-Leu-Arg(Me)-Trp-NH2] (Ac-[dY][Hyp]N[Ala(2-furyl)]F[azaGly]L[Arg(Me)]W-NH2), the EC50 was 0.023 nM.
Turning to `CNC(=N)NCCC[C@H](NC(=O)[C@H](CC(C)C)NC(=O)NNC(=O)[C@H](Cc1ccccc1)NC(=O)[C@H](Cc1cccs1)NC(=O)[C@H](CC(N)=O)NC(=O)[C@@H]1C[C@@H](O)CN1C(=O)[C@@H](Cc1ccc(O)cc1)NC(C)=O)C(=O)N[C@@H](Cc1c[nH]c2ccccc12)C(N)=O` [YA-144, Ac-(D-Tyr)-Hyp-Asn-Thi-Phe-azaGly-Leu-Arg(Me)-Trp-NH2] (Ac-[dY][Hyp]N[2Thi]F[azaGly]L[Arg(Me)]W-NH2), the EC50 came to 0.201 nM.
The same measure for `CNC(=N)NCCC[C@H](NC(=O)[C@H](CC(C)C)NC(=O)NNC(=O)[C@H](Cc1ccccc1)NC(=O)[C@@H](NC(=O)[C@H](CC(N)=O)NC(=O)C1(CNC(=O)[C@@H](Cc2ccc(O)cc2)NC(C)=O)CC1)[C@@H](C)O)C(=O)N[C@@H](Cc1c[nH]c2ccccc12)C(N)=O` [YA-145, Ac-D-Tyr-ACPA-Asn-Thr-Phe-azaGly-Leu-Arg(Me)-Trp-NH2] (Ac-[dY][cPrCO(1-aminomethyl)]NTF[azaGly]L[Arg(Me)]W-NH2): 0.034 nM.
For `CC(=O)N[C@@H](Cc1ccc(O)cc1)C(=O)N[C@@H](CC(N)=O)C(=O)N[C@@H](Cc1c[nH]c2ccccc12)C(=O)N[C@@]1(C)CCCC=CCCC[C@@](C)(C(=O)N[C@@H](CCCNC(=N)N)C(=O)N[C@@H](Cc2ccccc2)C(N)=O)NC(=O)CNC(=O)[C@H](Cc2ccccc2)NC(=O)[C@H](CO)NC1=O` [YA-146, Ac-Tyr-Asn-Trp-X-Ser-Phe-Gly-X-Arg-Phe-NH2 (stapled)] (Ac-YNW[S5]SFG[S5]RF-NH2; staple 4-8), the EC50 turned out to be 545 nM.
The same measure for `CNC(=N)NCCC[C@H](NC(=O)[C@H](CC(C)C)NC(=O)NNC(=O)[C@H](Cc1ccccc1)NC(=O)[C@@H](NC(=O)[C@H](CC(N)=O)NC(=O)[C@@H]1C[C@@H](O)CN1C(=O)[C@@H](Cc1ccc(O)cc1)NC(=O)CCOCCOCCOCCOCCOCCOCCOCCOCCNC(C)=O)[C@@H](C)O)C(=O)N[C@@H](Cc1c[nH]c2ccccc12)C(N)=O` [YA-151, Ac-PEG8-(D-Tyr)-Hyp-Asn-Thr-Phe-azaGly-Leu-Arg (Me)-Trp-NH2] (Ac-[PEG8][dY][Hyp]NTF[azaGly]L[Arg(Me)]W-NH2): 0.045 nM.
Turning to `CNC(=N)NCCC[C@H](NC(=O)[C@H](CC(C)C)NC(=O)[C@@H]1CCN1C(=O)[C@H](Cc1ccccc1)NC(=O)[C@@H](NC(=O)[C@H](CC(N)=O)NC(=O)[C@@H]1C[C@@H](O)CN1C(=O)[C@@H](Cc1ccc(O)cc1)NC(C)=O)[C@@H](C)O)C(=O)N[C@@H](Cc1c[nH]c2ccccc12)C(N)=O` [YA-153, Ac-D-Tyr-Hyp-Asn-Thr-Phe-Aze-Leu-Arg(Me)-Trp-NH2] (Ac-[dY][Hyp]NTF[Aze]L[Arg(Me)]W-NH2), the EC50 came out at 0.18 nM.
On to `CCCCCCCCCCCCCCCC(=O)NCCOCCOCCOCCOCCOCCOCCOCCOCCC(=O)NCC(=O)NCC(=O)N[C@@H](Cc1ccc(O)cc1)C(=O)N[C@@H](CC(N)=O)C(=O)N[C@@H](Cc1c[nH]c2ccccc12)C(=O)N[C@@H](CC(N)=O)C(=O)N[C@@H](CO)C(=O)N[C@@H](Cc1ccccc1)C(=O)NCC(=O)N[C@@H](CC(C)C)C(=O)N[C@@H](CCCNC(=N)N)C(=O)N[C@@H](Cc1ccccc1)C(N)=O` [YA-158, Palm-PEG8-Gly-Gly-Tyr-Asn-Trp-Asn-Ser-Phe-Gly-Leu-Arg-Phe-NH2], for which the EC50 is 0.0478 nM.
Take `CNC(=N)NCCC[C@H](NC(=O)[C@H](CC(C)C)N(C)C(=O)CCNC(=O)[C@H](Cc1ccccc1)NC(=O)[C@@H](NC(=O)[C@H](CC(N)=O)NC(=O)[C@@H]1C[C@@H](O)CN1C(=O)[C@@H](Cc1ccco1)NC(C)=O)[C@@H](C)O)C(=O)N[C@@H](Cc1c[nH]c2ccccc12)C(N)=O` [YA-164, Ac-[3-(2-furyl)-D-Ala]-Hyp-Asn-Thr-Phe-BetaAla-(NMe-Leu)-Arg(Me)-Trp-NH2] (Ac-[dAla(2-furyl)][Hyp]NTF[βAla][NMeL][Arg(Me)]W-NH2): the EC50 was determined as 1.75 nM.
The same measure for `CNC(=N)NCCC[C@H](NC(=O)[C@H](CC(C)C)NC(=O)NNC(=O)[C@H](Cc1ccccc1)NC(=O)[C@@H](NC(=O)[C@H](CC(N)=O)NC(=O)[C@@H](Cc1ccco1)NC(=O)[C@@H](Cc1ccc(O)cc1)NC(C)=O)[C@@H](C)O)C(=O)N[C@@H](Cc1c[nH]c2ccccc12)C(N)=O` [YA-165, Ac-D-Tyr-(D-2Fua)-Asn-Thr-Phe-azaGly-Leu-Arg(Me)-Trp-NH2] (Ac-[dY][dAla(2-furyl)]NTF[azaGly]L[Arg(Me)]W-NH2): 0.025 nM.
Then `CNC(=N)NCCC[C@H](NC(=O)[C@H](CC(C)C)NC(=O)NNC(=O)[C@H](Cc1ccccc1)NC(=O)[C@@H](Cc1ccco1)NC(=O)[C@H](CC(N)=O)NC(=O)[C@@H]1C[C@@H](O)CN1C(=O)[C@@H](Cc1ccc(O)cc1)NC(C)=O)C(=O)N[C@@H](Cc1c[nH]c2ccccc12)C(N)=O` [YA-166] (Ac-[dY][Hyp]N[dAla(2-furyl)]F[azaGly]L[Arg(Me)]W-NH2), with 0.86 nM; and `CNC(=N)NCCC[C@H](NC(=O)[C@H](CC(C)C)NC(=O)[C@@H](Cc1ccco1)NC(=O)[C@H](Cc1ccccc1)NC(=O)[C@@H](NC(=O)[C@H](CC(N)=O)NC(=O)[C@@H]1C[C@@H](O)CN1C(=O)[C@@H](Cc1ccc(O)cc1)NC(C)=O)[C@@H](C)O)C(=O)N[C@@H](Cc1c[nH]c2ccccc12)C(N)=O` [YA-168, Ac-D-Tyr-Hyp-Asn-Thr-Phe-(D-2Fua)-Leu-Arg(Me)-Trp-NH2] (Ac-[dY][Hyp]NTF[dAla(2-furyl)]L[Arg(Me)]W-NH2), with 0.531 nM.
Then `CNC(=N)NCCC[C@H](NC(=O)[C@H](CC(C)C)NC(=O)NNC(=O)[C@H](Cc1ccccc1)NC(=O)[C@@H](NC(=O)[C@H](CC(N)=O)NC(=O)[C@@H]1C[C@@H](O)CN1C(=O)[C@@H](Cc1ccc(O)cc1)NC(C)=O)[C@@H](C)O)C(=O)N[C@H](Cc1ccco1)C(N)=O` [YA-169, Ac-(D-Tyr)-Hyp-Asn-Thr-Phe-azaGly-Leu-Arg(Me)-[3-(2-furyl)-D-Ala]-NH2] (Ac-[dY][Hyp]NTF[azaGly]L[Arg(Me)][dAla(2-furyl)]-NH2), with 6.53 nM; and `CNC(=N)NCCC[C@H](NC(=O)[C@H](CC(C)C)NC(=O)NNC(=O)[C@H](Cc1ccccc1)NC(=O)[C@@H](NC(=O)[C@H](CC(N)=O)NC(=O)[C@@H]1C[C@@H](O)CN1C(=O)[C@@H](Cc1ccc(F)cc1)NC(C)=O)[C@@H](C)O)C(=O)N[C@@H](Cc1c[nH]c2ccccc12)C(N)=O` [YA-170, Ac-[D-Phe(4-F)]-Hyp-Asn-Thr-Phe-azaGly-Leu-Arg(Me)-Trp-NH2] (Ac-[dPhe(4-F)][Hyp]NTF[azaGly]L[Arg(Me)]W-NH2), with 0.007 nM.

Usually EC50 stands for the midpoint of the concentration-response curve.
